Measurements reported in patent US10370380B2, “Octahydropyrrolo[3,4-c]pyrrole derivatives and uses thereof” (Sunshine Lake Pharma Co., Ltd., priority 2015, dated 2019).

Columns and labels:
[1] = Stability in human liver microsome; assay type: in vitro ADME; settings: human, microsomes, pH 4
Method: A mixture of the compound of the invention and human liver microsome in 0.1 M potassium phosphate buffer (containing 1.0 mM EDTA, pH=4) was incubated at 37° C., the sample concentrations at different incubation times were measured, and then the half life of the compound was calculated by plotting “the relative amount of the compound” against “incubation time” by using software GraphPad Prism 5.01, and intrinsic clearance was calculated. The experiment system shown as table 5:
The sample was analyzed by LC/MS/MS (ESI […] source and waters xbridge C18 EB-A-1420 chromatographic column were adopted), the mobile phases were an aqueous solution with 2 mM ammonium formate and 0.1% formic acid (mobile phase A) and an methanol solution with 2 mM ammonium formate and 0.1% formic acid (mobile phase B), the flow rate was 0.4 mL/min; the column temperature was 40° C. The ratio of the sample peak area to the internal standard peak area was obtained through LC/MS/MS analysis, the content of the compound at 0 time point was as 100%, the relative content of the compound at each time point was calculated. The half life of the compound was calculated by plotting “the relative amount of the compound” against “incubation time”, and intrinsic clearance was calculated.
The positive control is suvorexant.

[2] = Pharmacokinetic evaluation after intravenous or gavage administration to dogs; assay type: in vivo, Beagle dogs; settings: beagle, dog, in vivo
Method: (§1) The compounds disclosed herein were administered in form of a saline solution containing 5% DMSO, 5% Kolliphor HS 15, 2% (2% HCl) and 88% Saline, or a solution containing 10% DMSO, 10% Kolliphor HS 15 and 80% physiological saline to the subject animals. For intravenous administration, the animals were administered with a dose of 1 mg/kg or 2 mg/kg, and vein blood samples (0.3 mL) were collected at the time points of 0.083, 0.25, 0.5, 1.0, 2.0, 4.0, 6.0, 8.0 and 24 h after drug administration; plasma samples were collected by centrifugation of the vein blood samples at 3000 rpm or 4000 rpm for 10 minutes, and stored at −20° C. or −70° C. For gavage administration, the animals were administered with a dose of 2.5 mg/kg or 5 mg/kg, and vein blood samples (0.3 mL) were collected at the time points of 0.25, 0.5, 1.0, 2.0, 4.0, 6.0, 8.0 and 24 h after drug administration; plasma samples were collected by centrifugation at 3000 rpm or 4000 rpm for 10 minutes, and stored at −20° C. or −70° C. The positive control is suvorexant.
(§2) The above plasma samples were analyzed by the LC-MS/MS system.

humanized OX1 receptor = target: T1, humanized OX1 receptor (Homo sapiens, UniProt O43613); assay: Antagonistic effect on humanized OX1 receptor, calcium flux by fluorescence detection in CHO cells; assay type: cell-based
T1 construct: expressed in transfected cells; host or cells: CHO (Chinese hamster ovary) cells
T1 sequence (O43613 1-425): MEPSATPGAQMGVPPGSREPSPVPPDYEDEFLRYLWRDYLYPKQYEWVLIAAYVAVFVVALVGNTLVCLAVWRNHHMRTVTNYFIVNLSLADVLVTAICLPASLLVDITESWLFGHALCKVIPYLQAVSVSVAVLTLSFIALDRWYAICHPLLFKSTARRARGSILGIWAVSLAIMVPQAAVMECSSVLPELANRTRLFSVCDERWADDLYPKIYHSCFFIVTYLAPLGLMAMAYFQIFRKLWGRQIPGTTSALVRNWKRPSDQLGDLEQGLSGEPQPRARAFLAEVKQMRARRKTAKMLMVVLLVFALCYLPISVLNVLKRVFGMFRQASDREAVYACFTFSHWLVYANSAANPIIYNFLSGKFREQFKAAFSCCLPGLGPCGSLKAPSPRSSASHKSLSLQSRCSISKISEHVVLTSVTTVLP
Method: The capability of the compounds provided herein to antagonize humanized OX1 receptor expressed in Chinese hamster ovary (CHO) cells was evaluated by the influence of the compounds disclosed herein on calcium flux in cells induced by agonist detected by a method of fluorescence detection. The cells were suspended in DMEM culture medium (invitrogen), and then added to a microplate with an average density of 2×10^4 cells/well. The Hank's balanced salt solution (pH 7.4) containing fluorescent probes (Fluo4 NW, Invitrogen), probenecid (invitrogen), 20 mM hydroxyethyl piperazine acetic sulfuric acid (invitrogen) was added to the above microplate, and then incubated together with the cells at 37° C. for 60 min, further incubated at 22° C. for 15 min. The microplate was placed in a microplate reader (CellLux, PerkinElmer), and to which was added the test compound or reference antagonist or Hank's balanced salt solution, 5 min later, 3 nM of orexin A or Hank's balanced salt solution (as a blank contrast) was added. […] The experimental results were expressed as an inhibition percentage relative to a control group (the group with 3 nM of orexin A).
The standard reference antagonist is SB334867, and IC50 values were calculated by the dose-effect curve obtained from a series of concentrations of the experimental test.

[3] = Pharmacokinetic evaluation after intravenous or gavage administration to rats; assay type: in vivo, SD rats; settings: SD, rat, in vivo
Method: as §1, §2

Cc1ccc(-n2nccn2)c(C(=O)N2CC3CN(c4nc5cc(Cl)ccc5o4)CC3C2)c1 (centres unmarked) [Example 1, (5-(5-chlorobenzo[d]oxazol-2-yl)hexahydropyrrolo[3,4-c]pyrrol-2(1H)-yl)(5-methyl-2-(2H-1,2,3-triazol-2-yl)phenyl)methanone]
CLint scaled at 1 μM [1]: 35.1 mL/min/kg | half-life at 1 μM [1]: 0.825 h | AUC(0-inf) ([2]; iv, 1 mg/kg): 2710 ng·h/mL | AUC(0-t) ([2]; iv, 1 mg/kg): 2150 ng·h/mL | Cmax ([2]; iv, 1 mg/kg): 821 ng/mL | MRT inf ([2]; iv, 1 mg/kg): 4.97 h | Vd ([2]; iv, 1 mg/kg): 1.83 L/kg | clearance ([2]; iv, 1 mg/kg): 6.14 mL/min/kg | half-life ([2]; iv, 1 mg/kg): 3.73 h | AUC(0-inf) ([2]; po, 5 mg/kg): 16300 ng·h/mL | AUC(0-t) ([2]; po, 5 mg/kg): 15900 ng·h/mL | Cmax ([2]; po, 5 mg/kg): 1410 ng/mL | F ([2]; po, 5 mg/kg): 147.6% | MRT inf ([2]; po, 5 mg/kg): 6.84 h | half-life ([2]; po, 5 mg/kg): 4.41 h | IC50 (humanized OX1 receptor): 604 nM | AUC(0-inf) ([3]; iv, 1 mg/kg): 417 ng·h/mL | AUC(0-t) ([3]; iv, 1 mg/kg): 415 ng·h/mL | Cmax ([3]; iv, 1 mg/kg): 646 ng/mL | MRT inf ([3]; iv, 1 mg/kg): 0.638 h | Vd ([3]; iv, 1 mg/kg): 1.53 L/kg | clearance ([3]; iv, 1 mg/kg): 40 mL/min/kg | half-life ([3]; iv, 1 mg/kg): 0.676 h | AUC(0-inf) ([3]; po, 2.5 mg/kg): 659 ng·h/mL | AUC(0-t) ([3]; po, 2.5 mg/kg): 482 ng·h/mL | Cmax ([3]; po, 2.5 mg/kg): 181 ng/mL | F ([3]; po, 2.5 mg/kg): 50.1% | MRT inf ([3]; po, 2.5 mg/kg): 3.03 h | half-life ([3]; po, 2.5 mg/kg): 2.21 h
